The target in one data set is dopamine D2/D3 receptors. Also on record: method as in PMID 2528555. Conditions: cited from earlier work.
Data set [1] in a line: Heart rate monitoring with pulse oximeters during PET scan. Format: in vivo. To be noted: 1 mg/kg, persisted throughout the scan.
A further data set has as its system dopamine D2 receptor. To be noted: 1 mg/kg.
In another data set the test system is dopamine D2R. Also on record: method as in PMID 1678519. To be noted: rat striatal membrane preparations; cited from earlier work.
A further data set has as its system human D2R. Also noted: method as in PMID 8982704, PMID 10617149. Conditions: SH-SY5Y cells; cited from earlier work.
In data set [2] the test system is D2R. To be noted: CHO cells co-transfected with A2AR and D2R; cited from earlier work.
The test system of data set [3] is D2R. Also noted: method as in PMID 26100888. Conditions: transiently transfected CHO cells; cited from earlier work.
Data set [4] relates to D2R. Also noted: method as in PMID 11435907. To be noted: rat brain slices, striatal area; cited from earlier work.
In data set [5] the test system is D2R. Also on record: method as in PMID 11435907. To be noted: human brain slices, striatal area; cited from earlier work.
In data set [6] the test system is dopamine release. Also noted: method as in PMID 10502311. To be noted: low doses 0.01–1 μM; cited from earlier work.
The test system of data set [7] is dopamine release. Also noted: method as in PMID 15525341. To be noted: locally administered 3, 10, 50, and 100 μM; cited from earlier work.
The conditions of data set [8]: cited from earlier work.
Details of data set [9]: method as in PMID 1684818. To be noted: cited from earlier work.
In a further data set the test system is D2R/D3R. Also noted: method as in PMID 25871974. To be noted: human, oral 300 mg; cited from earlier work.

Like-named read-outs stand apart in the source and are kept apart here. Marks after values point to notes of the source that are not given here.

Method for dopamine D2 receptor: Pretreatment of animals with a high dose of a specific (nonradioactive) receptor ligand is the standard method used in PET imaging to assess whether a PET tracer binds to its intended target. […] Only one PET scan was made in animals subjected to arterial blood sampling.
Blood samples with a volume of 0.10–0.13 mL were drawn from the femoral artery at 10, 20, 30, 40, 50, 60, and 90 s and 2, 3, 5, 7.5, 10, 15, 30, and 60 min after tracer administration. After the collection of each sample, an equal volume of saline with 1% heparin was infused into the artery to compensate for the blood volume loss. Larger blood samples (0.8–1 mL) were drawn at 5, 10, 30, and 60 min for [^11C]raclopride metabolite analysis. From each blood sample, a plasma sample was obtained by the centrifugation of whole blood for 5 min at 3000 g.

As to `CCN1CCC[C@H]1CNC(=O)c1c(O)c(Cl)cc(Cl)c1OC` (racemic) [[^11C]raclopride], the Kd at dopamine D2/D3 receptors (read-out: affinity (Kd) by equilibrium analysis) was 10 nM; at dopamine D2/D3 receptors (read-out: equilibrium dissociation constant KdVR by compartmental modeling) it was 6.2 nM.

Regarding `CCNC(=O)[C@H]1O[C@@H](n2cnc3c(N)nc(NCCc4ccc(CCC(=O)O)cc4)nc32)[C@H](O)[C@@H]1O` [CGS21680], the “heart rate, reduction in some animals down to” value in data set [1] is given as 94 bpm. Moreover, in the data set with dopamine D2 receptor, the “k3, accumbens (2TCM)” value is given as 0.012 ± 0.006*** min^–1; the “k3, caudate-putamen (2TCM)” value was 0.034 ± 0.014*** min^–1; the “k3, cerebellum (2TCM)” value was 0.028 ± 0.012*** min^–1; the “k3, globus pallidus (2TCM)” value is recorded as 0.029 ± 0.017*** min^–1. In addition, in the data set with dopamine D2 receptor, the “k3, striatum (2TCM)” value is reported as 0.033 ± 0.013*** min^–1; the “k3/k4, accumbens (2TCM)” value is on record as 0.87 ± 0.20; the “k3/k4, caudate-putamen (2TCM)” value was found to be 1.28 ± 0.35; the “k3/k4, cerebellum (2TCM)” value is recorded as 1.19 ± 0.32. Further, in the data set on dopamine D2 receptor, the “k3/k4, globus pallidus (2TCM)” value was found to be 1.63 ± 3.6; the “k4, accumbens (2TCM)” value is 0.015 ± 0.008*** min^–1; the “k4, caudate-putamen (2TCM)” value was 0.026 ± 0.009** min^–1; the “k4, cerebellum (2TCM)” value is listed as 0.023 ± 0.010** min^–1. For the same compound, in the data set on dopamine D2 receptor, the “k4, globus pallidus (2TCM)” value is given as 0.022 ± 0.021** min^–1 and the “k4, striatum (2TCM)” value is given as 0.026 ± 0.009** min^–1. Also, in the data set on dopamine D2R, the “decrease of affinity of dopamine D2R for agonist L-(−)-[^3H]NPA” value is listed as 40%. Besides, the “change of affinity of D2R to agonists” value with human D2R is recorded as “two- to threefold decreased”. In the data set with D2R [2], the “change of D2R numbers” value is “without any change” and the “change of affinity of D2R for dopamine” value was “three- to fourfold decrease”. Besides, the “affinity of D2R for radioligands [^3H]quinpirole and [^3H]raclopride” value in the data set with D2R [3] was “reduces the affinity”. For the same compound, the “IC50 values of competition between [^125I]iodosulpiride and dopamine” value with D2R [4] was “significant increase”. The “IC50 values of competition between [^125I]iodosulpiride and dopamine” value with D2R [5] is given as “significant increase”. Further, the “electrically evoked dopamine release” value with dopamine release [6] is listed as “inhibit”. The “dopamine release in entire striatum and shell of nucleus accumbens” value with dopamine release [7] is “increase”.

For `CCn1c(=O)c2c(nc(/C=C/c3ccc(OC)c(OC)c3)n2C)n(CC)c1=O` [KW6002, istradefylline], in the data set with dopamine D2 receptor, the “k3, accumbens (2TCM)” value stood at 0.035 ± 0.015 min^–1; the “k3, caudate-putamen (2TCM)” value is 0.086 ± 0.027** min^–1; the “k3, cerebellum (2TCM)” value is listed as 0.072 ± 0.028 min^–1; the “k3, globus pallidus (2TCM)” value is recorded as 0.087 ± 0.028* min^–1. In the data set with dopamine D2 receptor, the “k3, striatum (2TCM)” value is on record as 0.085 ± 0.027** min^–1; the “k3/k4, accumbens (2TCM)” value is 0.91 ± 0.27; the “k3/k4, caudate-putamen (2TCM)” value is recorded as 2.02 ± 0.52; the “k3/k4, cerebellum (2TCM)” value was found to be 1.75 ± 0.52. Also, in the data set with dopamine D2 receptor, the “k3/k4, globus pallidus (2TCM)” value is reported as 1.86 ± 0.54; the “k3/k4, striatum (2TCM)” value amounted to 2.00 ± 0.53; the “k4, accumbens (2TCM)” value is listed as 0.039 ± 0.013 min^–1; the “k4, caudate-putamen (2TCM)” value was determined as 0.043 ± 0.012 min^–1. In addition, in the data set with dopamine D2 receptor, the “k4, cerebellum (2TCM)” value amounted to 0.041 ± 0.011 min^–1; the “k4, globus pallidus (2TCM)” value was 0.048 ± 0.013 min^–1; the “k4, striatum (2TCM)” value came out at 0.043 ± 0.011 min^–1. For the same compound, the peripheral effects entry in data set [8] (rat, in vivo) is reported as “does not have potent peripheral effects”. In addition, the “tolerability after intraperitoneal administration” value in data set [8] (rats, doses up to 3 mg/kg) is “well tolerated”.

On to `CCNC(=O)[C@H]1O[C@@H](n2cnc3c(N)ncnc32)[C@H](O)[C@@H]1O` [NECA, 5’-N-ethylcarboxamide adenosine], for which the “effect on heart rate, bolus of low doses” value in data set [9] is listed as “tachycardia”. In addition, the “effect on heart rate, high dose” value in [9] (total dose of 3 mg/kg infused over 60 min) is listed as “rapid reduction in heart rate”.

Turning to `Cn1c(=O)c2c(ncn2C)n(C)c1=O` [caffeine], the “affinity of D2R for radioligands [^3H]quinpirole and [^3H]raclopride” value with D2R [3] was “reduces the affinity”. Moreover, the “increase of D2R/D3R availability in putamen and ventral striatum” value with D2R/D3R was 5–6%.

The values are drawn from publication PMC9346611, “Impact of an Adenosine A2A Receptor Agonist and Antagonist on Binding of the Dopamine D2 Receptor Ligand [^11C]raclopride in the Rodent Striatum” (Molecular Pharmaceutics, 2022).
